Data set [1] in a line: Cytotoxicity in mock-infected MT4 CMV-EGFP cells. Format: cell-based, human. As to conditions: human, fluorescence reduced by 50%. From the text: (§1) Analogously, MT4 cells are engineered with GFP and the constitutional cytomegalovirus (CMV) promotor. This cell line is designated MT4 CMV-EGFP, and can be used for the in vitro evaluation of cytotoxicity of investigational compounds. In this cell line, GFP levels are comparably to those of infected MT4 LTR-EGFP cells. Cytotoxic investigational compounds reduce GFP levels of mock-infected MT4 CMV-EGFP cells.
(§2) Effective concentration values such as 50% effective concentration (EC50) can be determined and are usually expressed in μM. An EC50 value is defined as the concentration of test compound that reduces the fluorescence of HIV-infected cells by 50%. The 50% cytotoxic concentration (CC50 in μM) is defined as the concentration of test compound that reduces fluorescence of the mock-infected cells by 50%. The ratio of CC50 to EC50 is defined as the selectivity index (SI) and is an indication of the selectivity of the anti-HIV activity of the inhibitor. The ultimate monitoring of HIV-1 infection and cytotoxicity is done using a scanning microscope. Image analysis allows very sensitive detection of viral infection. Measurements are done before cell necrosis, which usually takes place about five days after infection, in particular measurements are performed three days after infection.

The subject of data set [2] is wild-type HIV-IIIB strain. Put plainly: Antiviral analysis EGFP: anti-HIV activity in MT4 LTR-EGFP cells. Format: cell-based, HIV-1. Conditions: fluorescence of HIV-infected cells reduced by 50%, three days after infection. The protocol: The compounds of the present invention were tested for anti-viral activity in a cellular assay, which was performed according to the following procedure.
The human T-cell line MT4 is engineered with Green Fluorescent Protein (GFP) and an HIV-specific promoter, HIV-1 long terminal repeat (LTR). This cell line is designated MT4 LTR-EGFP, and can be used for the in vitro evaluation of anti-HIV activity of investigational compounds. In HIV-1 infected cells, the Tat protein is produced which upregulates the LTR promotor and finally leads to stimulation of the GFP reporter production, allowing measuring ongoing HIV-infection fluorometrically.
as §2
The following Table 5 lists EC50 values, expressed in micromole/liter, against wild-type HIV-IIIB strain, for a selected number of compounds of the invention.

The test system of another data set is MT4 CMV-EGFP cells. Put plainly: Cytotoxicity in mock-infected MT4 CMV-EGFP cells. Format: cell-based, human. As to conditions: fluorescence reduced by 50%.
From the text: as §1, §2

The mark [3] stands for this setting: Human immunodeficiency virus 1, 72 h.

Each structure is given as a SMILES string.

The term CC50 denotes the concentration that lowers cell viability or growth by half. A high value points to lower toxicity to the cells. Broadly, the EC50 is the midpoint of the concentration-response curve.

`Cc1ccc(-n2c(=O)c(C#N)cc3ccc(-c4ccccn4)cc32)cc1C#N` [compound 159] returned a CC50 at 3 days in data set [1] of 86 µM. This compound also came in with an EC50 in data set [2] (setting [3]) of 1.74 µM.
Taken in the same sequence, the figures for `N#Cc1cc2ccc(-n3cnnc3)cc2n(-c2ccc([N+](=O)[O-])cc2)c1=O` [compound 26] were over 100 µM and 80.9 µM.
With `Cc1ccc(-n2c(=O)c(C#N)c(NCCN)c3ccccc32)cc1C#N` [compound 164], the CC50 at 3 days in data set [1] stood at 12.9 µM. For the same compound, the midpoint of the response in data set [2] (setting [3]), the EC50, lay at 0.63 µM.
For `N#Cc1cc2ccc(OCCNCCO)cc2n(-c2ccc([N+](=O)[O-])cc2)c1=O` [compound 71], in data set [1], the half-maximal cytotoxic concentration (CC50) at 3 days is over 32 µM. In data set [2] (setting [3]), this compound showed an EC50 of over 32 µM.
With `Cc1ccc(-n2c(=O)c(C#N)cc3ccc(-c4cc[nH]c4)cc32)cc1C#N` [compound 150], the CC50 at 3 days in data set [1] is over 100 µM. Moreover, the EC50 in data set [2] (setting [3]) stood at 0.56 µM.
The like results for `Cc1ccc(-n2c(=O)c(C#N)cc3ccc(-c4cccc(CNC(=O)CN(C)C)c4)cc32)cc1C#N` [compound 158] were, in that order, 11.5 µM and 0.21 µM.
The like results for `COc1ccc2cc(C#N)c(=O)n(-c3ccc(C)c(C#N)c3)c2c1` [compound 146] were, in that order, over 100 µM and 4.67 µM.
For the compound `N#Cc1c(N)c2ccc(-c3cccs3)cc2n(-c2ccc([N+](=O)[O-])cc2)c1=O` [compound 119], the CC50 at 3 days in data set [1] was over 100 µM. In data set [2] (setting [3]), the EC50 amounted to 0.52 µM.
The like results for `N#Cc1c(N)c2ccc(Cl)cc2n(-c2ccc(Cl)nc2)c1=O` [compound 103] were, in that order, 85.2 µM and 3.61 µM.
Taken in the same sequence, the figures for `N#Cc1cc2ccc(-c3ccccc3)cc2n(-c2ccc([N+](=O)[O-])cc2)c1=O` [compound 28] were over 32 µM and 1.34 µM.
Regarding `Cn1c(=O)oc2cc(-n3c(=O)c(C#N)cc4ccccc43)ccc21` [compound 8], in data set [1], the CC50 at 3 days is over 100 µM. In data set [2] (setting [3]), this compound returned an EC50 of 12.5 µM.
`Cc1ccc(-n2c(=O)c(C#N)cc3ccc(Br)cc32)cc1C#N` [compound 149] displayed a CC50 at 3 days in data set [1] of over 100 µM. Besides, it took 2.74 µM to reach a half-maximal effect in data set [2] (setting [3]) (EC50).
`N#Cc1cc2cccnc2n(-c2ccc([N+](=O)[O-])cc2)c1=O` [compound 99] yielded a 50% cytotoxic concentration (CC50) at 3 days in data set [1] of over 32 µM. This compound registered an EC50 in data set [2] (setting [3]) of 19.3 µM.
Turning to `N#Cc1cc2ccc(OP(=O)(O)O)cc2n(-c2ccc([N+](=O)[O-])cc2)c1=O` [compound 70], the CC50 at 3 days in data set [1] was over 32 µM. Also, it took 17.5 µM to reach a half-maximal effect in data set [2] (setting [3]) (EC50).
The like results for `N#Cc1cc2ccc(O)cc2n(-c2ccc([N+](=O)[O-])cc2)c1=O` [compound 10] were, in that order, over 32 µM and 13.3 µM.
Compound `Cc1ccc2c(N(C)C)c(C#N)c(=O)n(-c3ccc([N+](=O)[O-])cc3)c2n1` [compound 127] came in with a CC50 at 3 days in data set [1] of over 32 µM. In data set [2] (setting [3]), the EC50 is 22.4 µM.
With `N#Cc1cc2cc(O)c(O)cc2n(-c2ccc([N+](=O)[O-])cc2)c1=O` [compound 94], in data set [1], the 50% cytotoxic concentration (CC50) at 3 days is over 32 µM. For the same compound, the EC50 in data set [2] (setting [3]) was over 32 µM.
Regarding `N#Cc1cc2ccc(-n3ccnc3)cc2n(-c2ccc([N+](=O)[O-])cc2)c1=O` [compound 27], in data set [1], the CC50 at 3 days is over 100 µM. Further, in data set [2] (setting [3]), the EC50 amounted to 1.13 µM.
The like results for `COc1ccc2c(N)c(C#N)c(=O)n(-c3ccc(C)c(C#N)c3)c2c1` [compound 145] were, in that order, over 100 µM and 3.01 µM.
Taken in the same sequence, the figures for `COc1ccc2c(c1)cc(C#N)c(=O)n2-c1ccc([N+](=O)[O-])cc1` [compound 83] were over 32 µM and over 32 µM.
On to `N#Cc1cc2ccccc2n(-c2ccc([N+](=O)[O-])cc2)c1=O` [compound 1], for which the CC50 at 3 days in data set [1] was over 100 µM. This compound also showed an EC50 in data set [2] (setting [3]) of 2.89 µM.
`Cc1ccc(-n2c(=O)c(C#N)cc3ccc(OCCCN(C)C)cc32)cc1C#N` [compound 147]: the CC50 at 3 days in data set [1] was found to be 83.9 µM. In data set [2] (setting [3]), this compound returned an EC50 of 0.85 µM.
The like results for `Cc1ccc(-n2c(=O)c(C#N)cc3ccccc32)cc1C#N` [compound 163] were, in that order, over 100 µM and 9.25 µM.
The like results for `N#Cc1cc2ccc(N)cc2n(-c2ccc([N+](=O)[O-])cc2)c1=O` [compound 24] were, in that order, over 32 µM and 1.48 µM.
The like results for `N#Cc1c(N)c2ccc(Br)cc2n(-c2ccc([N+](=O)[O-])cc2)c1=O` [compound 118] were, in that order, over 32 µM and 0.72 µM.
The compound `COc1cc2cc(C#N)c(=O)n(-c3ccc([N+](=O)[O-])cc3)c2cc1OC` [compound 93] yielded a CC50 at 3 days in data set [1] of over 32 µM. The compound further had an EC50 in data set [2] (setting [3]) of 7.01 µM.
The like results for `N#Cc1c(NCCN2CCCC2)c2ccccc2n(-c2ccc([N+](=O)[O-])cc2)c1=O` [compound 130] were, in that order, over 100 µM and 3.71 µM.
As for `N#Cc1cc2ccc(-n3cccc3)cc2n(-c2ccc([N+](=O)[O-])cc2)c1=O` [compound 25], in data set [1], the CC50 at 3 days worked out at 97.2 µM. Moreover, the EC50 in data set [2] (setting [3]) came out at 0.95 µM.
`Cc1ccc(-n2c(=O)c(C#N)c(N)c3ccc(Br)cc32)cc1C#N` [compound 121] had a half-maximal cytotoxic concentration (CC50) at 3 days in data set [1] of 55.2 µM. The same compound came in with an EC50 in data set [2] (setting [3]) of 0.75 µM.
Taken in the same sequence, the figures for `Cc1ccc(-n2c(=O)c(C#N)cc3ccc(OCCCN4CCCC4)cc32)cc1C#N` [compound 148] were 51.5 µM and 0.64 µM.
The like results for `Cc1ccc(-n2c(=O)c(C#N)cc3ccc(NCCCN4CCCC4)cc32)cc1C#N` [compound 157] were, in that order, 52.7 µM and 0.89 µM.
The like results for `Cc1ccc(-n2c(=O)c(C#N)c(N)c3ccc(-c4ccccn4)cc32)cc1C#N` [compound 123] were, in that order, over 100 µM and over 100 µM.
`CN(C)CCCNc1ccc2cc(C#N)c(=O)n(-c3ccc([N+](=O)[O-])cc3)c2c1` [compound 20] had a CC50 in the data set on MT4 CMV-EGFP cells of 49 µM. In data set [2], the response was half-maximal at 0.3 µM (EC50).
The like results for `N#Cc1cc2ccc(-c3cccc(C(N)=O)c3)cc2n(-c2ccc([N+](=O)[O-])cc2)c1=O` [compound 42] were, in that order, over 100 µM and 2.85 µM.
Taken in the same sequence, the figures for `N#Cc1cc2ccc(-c3ccc(C(=O)O)s3)cc2n(-c2ccc([N+](=O)[O-])cc2)c1=O` [compound 47] were over 100 µM and over 100 µM.
In the data set on MT4 CMV-EGFP cells, `N#Cc1cc2ccc(OCCCN3CCOCC3)cc2n(-c2ccc([N+](=O)[O-])cc2)c1=O` [compound 56] had a CC50 of over 32 µM. It took 1.4 µM to reach a half-maximal effect in data set [2] (EC50).
As to `N#Cc1cc2ccc(-c3cncs3)cc2n(-c2ccc([N+](=O)[O-])cc2)c1=O` [compound 77], the midpoint of cytotoxicity with MT4 CMV-EGFP cells, the CC50, lay at 25.8 µM. For the same compound, in data set [2], the response was half-maximal at 0.34 µM (EC50).
Taken in the same sequence, the figures for `N#Cc1c(N)c2ccc(Cl)cc2n(-c2ccc([N+](=O)[O-])cc2)c1=O` [compound 102] were over 32 µM and 0.85 µM.
Taken in the same sequence, the figures for `N#Cc1cc2ccc(-c3cccs3)cc2n(-c2ccc([N+](=O)[O-])cc2)c1=O` [compound 36] were over 100 µM and 0.76 µM.
The like results for `N#Cc1cc2ccc(OCCN)cc2n(-c2ccc([N+](=O)[O-])cc2)c1=O` [compound 53] were, in that order, over 100 µM and 1.14 µM.
Turning to `CN(C)CCCOc1ccc2cc(C#N)c(=O)n(-c3ccc([N+](=O)[O-])cc3)c2c1` [compound 64], the half-maximal cytotoxic concentration (CC50) in the data set on MT4 CMV-EGFP cells worked out at 70.6 µM. Also, in data set [2], the midpoint of the response, the EC50, lay at 0.47 µM.
The like results for `N#Cc1cc2ccc(-c3ccncc3)cc2n(-c2ccc([N+](=O)[O-])cc2)c1=O` [compound 29] were, in that order, over 32 µM and 0.92 µM.
In the data set on MT4 CMV-EGFP cells, `N#Cc1cc2ccc(-c3cccc(CN)c3)cc2n(-c2ccc([N+](=O)[O-])cc2)c1=O` [compound 30] gave a CC50 of 24.7 µM. The compound further displayed an EC50 in data set [2] of 0.63 µM.
`CN(C)CCOc1ccc2cc(C#N)c(=O)n(-c3ccc([N+](=O)[O-])cc3)c2c1` [compound 62] gave a CC50 in the data set with MT4 CMV-EGFP cells of over 32 µM. In data set [2], this compound registered an EC50 of 4.29 µM.
The like results for `N#Cc1c(NCCCO)c2ccccc2n(-c2ccc([N+](=O)[O-])cc2)c1=O` [compound 138] were, in that order, over 100 µM and 12 µM.
Taken in the same sequence, the figures for `N#Cc1cc2ccc(-c3cccnc3)cc2n(-c2ccc([N+](=O)[O-])cc2)c1=O` [compound 33] were over 100 µM and 0.83 µM.
As for `N#Cc1cc2ccc(-c3cncnc3)cc2n(-c2ccc([N+](=O)[O-])cc2)c1=O` [compound 31], in the data set on MT4 CMV-EGFP cells, the CC50 was over 100 µM. The compound further came in with an EC50 in data set [2] of 7.9 µM.
The compound `CCN(CC)CCCOc1ccc2cc(C#N)c(=O)n(-c3ccc([N+](=O)[O-])cc3)c2c1` [compound 66] displayed a CC50 in the data set with MT4 CMV-EGFP cells of over 32 µM. Further, a half-maximal effect in data set [2] (EC50) was put at 1.26 µM.
`Cc1ccc2cc(C#N)c(=O)n(-c3ccc([N+](=O)[O-])cc3)c2c1` [compound 95] showed a CC50 in the data set on MT4 CMV-EGFP cells of over 100 µM. Besides, the EC50 in data set [2] was over 100 µM.

The values above are taken from patent US20100087649A1, “QUINOLINONE DERIVATIVES” (priority 2006, published 2010).
